Assay results as given in patent publication US5001158A, “Nitrosoureas compounds preparation thereof and utilization thereof in anticancerous” (Centre National de la Recherche Scientifique, priority 1990, dated 1991).

Tests used:
leukemia L 1210 [1] = assay: Antitumoral activity on leukemia L 1210 grafted i.p. in mice, sulfoxide and sulfone mixtures (Unit 71 of INSERM); format: in vivo, mice (B6 D2 F1 /IFFA CREDO); details: D1, D5, D9
Description: This activity was also studied on mice carrying leukemia L 1210 grafted i.p. This experimental tumor is the one most frequently used in the primary screening of cytostatic drugs.
These tests were conducted in parallel in two laboratories: at Unit 71 of the Institut National de la Sante et de la Recberche Mediecale (INSERM), ClermontFerrand, and at the Institut de Cancerologie et d' Immunogenetique (ICIG), Villejuif.
The antitumoral efficacy of the products according to the invention was compared with that of CNCC.
On day D:0, three-month-old male B6 D2 F1 mice received 10^5 cells of the leukemia strain L 1210 by intraperitoneal administration. The animals are divided up into groups of 8 to 10 animals for the control groups and 6 to 8 animals for the treated groups. On days D:1, D:5 and D:9, the animals receive the treatment at different doses by intraperitoneal or intravenous administration. The CNCC is administered as a suspension in olive oil. The products according to the invention are administered in physiological serum. The mortality is recorded every day. The survival median was determined for the treated animals and the control animals. The results are considered to be positive if the index I= [formula] is greater than 125.
The value .infin. means that 50% to 100% of the animals have survived to day D:90.
The cytostatic activity oi the products according to the invention on leukemia L 1210 was evaluated on B6 D2 F1 /IFFA CREDO mice according to the protocol described previously.
The following were administered intraperitoneally (i.p.): the mixture A1 A2 in the following proportions: A1 (70%) and A2 (30%), or the mixture B1 B2 in the same proportions, or CNCC at the following doses: 10 mg/kg, 20 mg/kg, 30 mg/kg, 40 mg/kg and 50 mg/kg. The results are given in Table II and invite the following remarks: […]

[2] = test system: types of tumor listed in Table I; details: cited from earlier work
[3] = test system: Lewis pulmonary carcinoma; details: 30 mg/kg i.p., days 1, 5 and 9; cited from earlier work
Ovarian M 555 = details: 30 mg/kg i.p., days 1, 5 and 9; cited from earlier work
[4] = Solubility in solvents allowing intravenous administration; format: physicochemical; details: solvents which allow intravenous administration
Leukemia L 1210 [5] = details: 30 mg/kg i.p., days 1, 5 and 9; cited from earlier work
[6] = test system: Carcinoma of the colon (colon 26); details: 30 mg/kg i.p., days 1, 5 and 9; cited from earlier work
Melanocarcinoma B 16 = details: 30 mg/kg i.p., days 1, 5 and 9; cited from earlier work
Fibrosarcoma I.C.I.G. C1 = test system: Fibrosarcoma I.C.I.G. C1; parameters: key: N.S.: Not significant; .infin.: 50% more of the treated animals are cure; details: 30 mg/kg i.p., days 1, 5 and 9; cited from earlier work
Glioma 26 = details: 30 mg/kg i.p., days 1, 5 and 9; cited from earlier work
[7] = test system: Mammary adenocarcinoma TM2; details: 30 mg/kg i.p., days 1, 5 and 9; cited from earlier work

## O=NN(CCCl)C(=O)NCCSSCCN(N=O)C(=O)NCCCl [CNCC, N[N-(2-chloroethyl) N-nitrosocarbamoyl]-N'-[N(2-chloroethyl)carbamoyl] N'-nitrosocystamine]
Leukemia L 1210 [1]; 10 mg/kg i.p.
  T/C × 100: 250
  number of animals surviving to 90 days: 0/6
Leukemia L 1210 [1]; 20 mg/kg i.p.
  T/C × 100: .infin. (50 to 100% of the animals surviving to 90 days)
  number of animals surviving to 90 days: 6/6
Leukemia L 1210 [1]; 30 mg/kg i.p.
  T/C × 100: .infin. (50 to 100% of the animals surviving to 90 days)
  number of animals surviving to 90 days: 6/6
Leukemia L 1210 [1]; 40 mg/kg i.p.
  T/C × 100: .infin. (50 to 100% of the animals surviving to 90 days)
  number of animals surviving to 90 days: 3/6
Leukemia L 1210 [1]; 50 mg/kg i.p.
  T/C × 100: 125
  number of animals surviving to 90 days: 0/6
[2]
  activity against types of tumor (in words): active against all the types of tumor listed in Table I, with the exception of fibrosarcoma I.C.I.G
  activity compared with the other chloroethylnitrosoureas (in words): quantitatively greater than those observed with the other chloroethylnitrosoureas
[3]
  Increase in the survival time (I.L.S.: T/C × 100): .infin. (50% more of the treated animals are cure)
Ovarian M 555
  Increase in the survival time (I.L.S.: T/C × 100): > 254
[4]
  solubility (in words): insolubility of this compound in the solvents which allow intravenous administration
Leukemia L 1210 [5]
  Increase in the survival time (I.L.S.: T/C × 100): .infin. (50% more of the treated animals are cure)
[6]
  Increase in the survival time (I.L.S.: T/C × 100): .infin. (50% more of the treated animals are cure)
Melanocarcinoma B 16
  Increase in the survival time (I.L.S.: T/C × 100): 200
Fibrosarcoma I.C.I.G. C1
  Increase in the survival time (I.L.S.: T/C × 100): N.S.
Glioma 26
  Increase in the survival time (I.L.S.: T/C × 100): 200
[7]
  Increase in the survival time (I.L.S.: T/C × 100): 185
